Laboratory results as given in US20240270695A1, “COMPOUNDS, COMPOSITIONS AND METHODS OF TREATING DISORDERS” (Chengdu Anticancer Bioscience LTD, priority 2021, published 2024).

Tests used:
[1] = tested on: RPE-Neo or RPE-MYC or RPE-MYC expressing an EGFP-Histone 2B fusion protein; test: Phenotypic screening assay (arrest in mitosis, change in DNA content, cell death; GE IN-Cell Analyzer 2000); type: cell-based; conditions: Homo sapiens, compounds 20 nM to 20 μM, 24, 48 or 72 hours
[2] = tested on: RPE-Neo or RPE-MYC or RPE-MYC expressing an EGFP-Histone 2B fusion protein; test: MTT assays of cellular proliferation; type: cell-based; conditions: Homo sapiens, min. effective conc., read-out: Proliferative arrest (<50%)
[3] = read-out: Min. Effective conc. for Polyploidy (≥10%)
[4] = min. effective conc., read-out: Cell Death (>30%)
[5] = min. effective conc., read-out: Mitotic Arrest (≥10%)

| SMILES | minimal effective concentration [1, 3] [µM] | minimal effective concentration [1, 4] [µM] | minimal effective concentration [1, 5] [µM] | minimal effective concentration [2] [µM] |
| --- | --- | --- | --- | --- |
| CNC(=O)C1=C(O)c2ccccc2N(Cc2ccncc2)C(=O)C1 [Example 74, 5-hydroxy-N-methyl-2-oxo-1-(pyridin-4-ylmethyl)-2,3-dihydro-1H-benzo[b]azepine-4-carboxamide] | 30 to 1000 | 30 to 1000 | 30 to 1000 | 30 to 1000 |
| CNC(=O)C1=C(O)c2ccccc2N(Cc2cc(F)ccc2C)C(=O)C1 [Example 115, 1-(5-fluoro-2-methylbenzyl)-5-hydroxy-N-methyl-2-oxo-2,3-dihydro-1H-benzo[b]azepine-4-carboxamide] | 30 to 1000 | 30 to 1000 | 10 to 30 | 30 to 1000 |
| CNC(=O)C1=C(O)c2ccc(Br)cc2N(Cc2ccc(F)c(C)c2)C(=O)C1 [Example 132, 8-bromo-1-(4-fluoro-3-methylbenzyl)-5-hydroxy-N-methyl-2-oxo-2,3-dihydro-1H-benzo[b]azepine-4-carboxamide] | 1 to 10 | 1 to 10 | 1 to 10 | 1 to 10 |
| CNC(=O)C1=C(O)c2cc(OC)ccc2N(Cc2ccc(C)c(F)c2)C(=O)C1 [Example 137, 1-(3-fluoro-4-methylbenzyl)-5-hydroxy-7-methoxy-N-methyl-2-oxo-2,3-dihydro-1H-benzo[b]azepine-4-carboxamide] | 1 to 10 | 1 to 10 | 1 to 10 | 1 to 10 |
| CNC(=O)C1=C(O)c2ccccc2N(CCc2ccc(OC)cc2)C(=O)C1 [Example 96, 5-hydroxy-1-(4-methoxyphenethyl)-N-methyl-2-oxo-2,3-dihydro-1H-benzo[b]azepine-4-carboxamide] | 30 to 1000 | 30 to 1000 | 30 to 1000 | 30 to 1000 |
| CNC(=O)C1=C(O)c2ccccc2N(Cc2ccccc2F)C(=O)C1 [Example 78, 1-(2-fluorobenzyl)-5-hydroxy-N-methyl-2-oxo-2,3-dihydro-1H-benzo[b]azepine-4-carboxamide] | 10 to 30 | 10 to 30 | 10 to 30 | 10 to 30 |
| CNC(=O)C1=C(O)c2ccccc2N(CC2CC2)C(=O)C1 [Example 70, 1-(cyclopropylmethyl)-5-hydroxy-N-methyl-2-oxo-2,3-dihydro-1H-benzo[b]azepine-4-carboxamide] | 30 to 1000 | 30 to 1000 | 30 to 1000 | 30 to 1000 |
| CNC(=O)C1CC(=O)N(Cc2c(C)cccc2C)c2ccccc2C1=O (centres unmarked) [Example 99, 1-(2,6-dimethylbenzyl)-5-hydroxy-N-methyl-2-oxo-2,3-dihydro-1H-benzo[b]azepine-4-carboxamide] | 30 to 1000 | 30 to 1000 | 30 to 1000 | 30 to 1000 |
| CNC(=O)C1=C(O)c2ccccc2N(Cc2ccc(C)cc2)C(=O)C1 [Example 79, 5-hydroxy-N-methyl-1-(4-methylbenzyl)-2-oxo-2,3-dihydro-1H-benzo[b]azepine-4-carboxamide] | 1 to 10 | 1 to 10 | 1 to 10 | 1 to 10 |
| CNC(=O)C1=C(O)c2ccccc2N(Cc2ccc(F)c(F)c2)C(=O)C1 [Example 102, 1-(3,4-difluorobenzyl)-5-hydroxy-N-methyl-2-oxo-2,3-dihydro-1H-benzo[b]azepine-4-carboxamide] | 30 to 1000 | 30 to 1000 | 30 to 1000 | 30 to 1000 |
| COC(=O)C1=C(O)c2ccccc2N(Cc2cccc3ccccc23)C(=O)C1 [Example 38, Methyl 5-hydroxy-1-(naphthalen-1-ylmethyl)-2-oxo-2,3-dihydro-1H-benzo[b]azepine-4-carboxylate] | 30 to 1000 | 30 to 1000 | 30 to 1000 | 30 to 1000 |
| CNC(=O)C1=C(O)c2ccccc2N(Cc2ccc(C#N)cc2)C(=O)C1 [Example 85, 1-(4-cyanobenzyl)-5-hydroxy-N-methyl-2-oxo-2,3-dihydro-1H-benzo[b]azepine-4-carboxamide] | 30 to 1000 | 30 to 1000 | 30 to 1000 | 30 to 1000 |
| CNC(=O)C1=C(O)c2ccccc2N(Cc2ccc(F)c(C(F)(F)F)c2)C(=O)C1 [Example 118, 1-(4-fluoro-3-(trifluoromethyl)benzyl)-5-hydroxy-N-methyl-2-oxo-2,3-dihydro-1H-benzo[b]azepine-4-carboxamide] | 30 to 1000 | 30 to 1000 | 30 to 1000 | 30 to 1000 |
| CNC(=O)C1=C(O)c2ccccc2N(Cc2cccc(OC)c2F)C(=O)C1 [Example 113, 1-(2-fluoro-3-methoxybenzyl)-5-hydroxy-N-methyl-2-oxo-2,3-dihydro-1H-benzo[b]azepine-4-carboxamide] | 10 to 30 | 10 to 30 | 10 to 30 | 10 to 30 |
| CNC(=O)C1=C(O)c2ccccc2N(Cc2ccccc2OC)C(=O)C1 [Example 93, 5-hydroxy-1-(2-methoxybenzyl)-N-methyl-2-oxo-2,3-dihydro-1H-benzo[b]azepine-4-carboxamide] | 10 to 30 | 10 to 30 | 10 to 30 | 10 to 30 |
| CNC(=O)C1=C(O)c2ccccc2N(Cc2ccc(F)cc2)C(=O)C1 [Example 76, 1-(4-fluorobenzyl)-5-hydroxy-N-methyl-2-oxo-2,3-dihydro-1H-benzo[b]azepine-4-carboxamide] | 1 to 10 | 1 to 10 | 1 to 10 | 1 to 10 |
| CNC(=O)C1=C(O)c2ccccc2N(Cc2cccc(F)c2F)C(=O)C1 [Example 107, 1-(2,3-difluorobenzyl)-5-hydroxy-N-methyl-2-oxo-2,3-dihydro-1H-benzo[b]azepine-4-carboxamide] | 30 to 1000 | 30 to 1000 | 30 to 1000 | 30 to 1000 |
| CCCCc1ccc(CN2C(=O)CC(C(=O)NC)=C(O)c3ccccc32)cc1 [Example 88] | 30 to 1000 | 30 to 1000 | 30 to 1000 | 30 to 1000 |
| CNC(=O)C1=C(O)c2ccccc2N(Cc2ccc(Cl)c(F)c2)C(=O)C1 [Example 124, 1-(4-chloro-3-fluorobenzyl)-5-hydroxy-N-methyl-2-oxo-2,3-dihydro-1H-benzo[b]azepine-4-carboxamide] | 1 to 10 | 1 to 10 | 1 to 10 | 1 to 10 |
| CNC(=O)C1=C(O)c2ccccc2N(Cc2cc(F)c(OC)c(F)c2)C(=O)C1 [Example 122, 1-(3,5-difluoro-4-methoxybenzyl)-5-hydroxy-N-methyl-2-oxo-2,3-dihydro-1H-benzo[b]azepine-4-carboxamide] | 30 to 1000 | 30 to 1000 | 30 to 1000 | 30 to 1000 |
| CNC(=O)C1=C(O)c2ccccc2N(Cc2cccc(F)c2)C(=O)C1 [Example 77, 1-(3-fluorobenzyl)-5-hydroxy-N-methyl-2-oxo-2,3-dihydro-1H-benzo[b]azepine-4-carboxamide] | 30 to 1000 | 30 to 1000 | 30 to 1000 | 30 to 1000 |
| CNC(=O)C1=C(O)c2ccccc2N(Cc2ccc(F)c(Cl)c2)C(=O)C1 [Example 116, 1-(3-chloro-4-fluorobenzyl)-5-hydroxy-N-methyl-2-oxo-2,3-dihydro-1H-benzo[b]azepine-4-carboxamide] | 30 to 1000 | 30 to 1000 | 30 to 1000 | 30 to 1000 |
| CNC(=O)C1CC(=O)N(Cc2c(F)cccc2F)c2ccccc2C1=O (centres unmarked) [Example 108, 1-(2,6-difluorobenzyl)-5-hydroxy-N-methyl-2-oxo-2,3-dihydro-1H-benzo[b]azepine-4-carboxamide] | 30 to 1000 | 30 to 1000 | 30 to 1000 | 30 to 1000 |
| CNC(=O)C1=C(O)c2ccccc2N(Cc2ccc(F)c(C#N)c2)C(=O)C1 [Example 117, 1-(3-cyano-4-fluorobenzyl)-5-hydroxy-N-methyl-2-oxo-2,3-dihydro-1H-benzo[b]azepine-4-carboxamide] | 30 to 1000 | 30 to 1000 | 30 to 1000 | 30 to 1000 |
| CC(c1ccc(F)cc1)N1C(=O)CCC(=O)c2ccccc21 (centres unmarked) [Example 82, 1-(1-(4-fluorophenyl)ethyl)-3,4-dihydro-1H-benzo[b]azepine-2,5-dione] | 30 to 1000 | 30 to 1000 | 30 to 1000 | 30 to 1000 |
| CNC(=O)C1CC(=O)N(Cc2ccc(OC(F)F)cc2)c2ccccc2C1=O (centres unmarked) [Example 94, 1-(4-(difluoromethoxy)benzyl)-5-hydroxy-N-methyl-2-oxo-2,3-dihydro-1H-benzo[b]azepine-4-carboxamide] | 30 to 1000 | 30 to 1000 | 30 to 1000 | 30 to 1000 |
